Tests used:
KRas^G12R = biological target: T1, KRas^G12R (Homo sapiens, UniProt P01116, G12R); experiment: KRas binding assay (TR-FRET tracer displacement), KRas G12R
T1 construct: Biotinylated KRas (corresponding to amino acids 1-169, produced at Accelegan Inc.); biotin (biotinylated); purchased Accelegan Inc

KRas^G12V = biological target: T2, KRas^G12V (Homo sapiens, UniProt P01116, G12V); experiment: KRas binding assay (TR-FRET tracer displacement), KRas G12V
T2 construct: Biotinylated KRas (corresponding to amino acids 1-169, produced at Accelegan Inc.); biotin (biotinylated); purchased Accelegan Inc
T2 sequence (P01116 1-169 isoform P01116-2 G12V): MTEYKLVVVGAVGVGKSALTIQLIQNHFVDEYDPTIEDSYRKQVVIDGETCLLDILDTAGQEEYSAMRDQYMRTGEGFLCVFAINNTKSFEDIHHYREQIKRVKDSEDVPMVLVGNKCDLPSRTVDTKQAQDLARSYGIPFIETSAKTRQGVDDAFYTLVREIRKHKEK

KRas^WT = biological target: T3, KRas^WT (Homo sapiens, UniProt P01116); experiment: KRas binding assay (TR-FRET tracer displacement), KRas WT; details: TR-FRET tracer displacement, KRas WT
T3 construct: Biotinylated KRas (corresponding to amino acids 1-169, produced at Accelegan Inc.); biotin (biotinylated); purchased Accelegan Inc
T3 sequence (P01116 1-169 isoform P01116-2): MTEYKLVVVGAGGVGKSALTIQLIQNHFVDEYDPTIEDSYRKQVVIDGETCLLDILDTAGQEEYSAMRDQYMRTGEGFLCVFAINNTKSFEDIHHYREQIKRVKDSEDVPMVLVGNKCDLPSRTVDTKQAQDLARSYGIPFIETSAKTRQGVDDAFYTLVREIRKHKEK

KRas^G12S = biological target: T4, KRas^G12S (Homo sapiens, UniProt P01116, G12S); experiment: KRas binding assay (TR-FRET tracer displacement), KRas G12S; details: TR-FRET tracer displacement, KRas G12S
T4 construct: Biotinylated KRas (corresponding to amino acids 1-169, produced at Accelegan Inc.); biotin (biotinylated); purchased Accelegan Inc
T4 sequence (P01116 1-169 isoform P01116-2 G12S): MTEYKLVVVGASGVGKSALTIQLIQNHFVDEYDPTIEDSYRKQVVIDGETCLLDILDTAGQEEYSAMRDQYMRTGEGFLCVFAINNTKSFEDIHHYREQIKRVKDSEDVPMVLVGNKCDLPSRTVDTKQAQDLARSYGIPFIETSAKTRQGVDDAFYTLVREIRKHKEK

KRas^G12A = biological target: T5, KRas^G12A (Homo sapiens, UniProt P01116, G12A); experiment: KRas binding assay (TR-FRET tracer displacement), KRas G12A; details: TR-FRET tracer displacement, KRas G12A
T5 construct: Biotinylated KRas (corresponding to amino acids 1-169, produced at Accelegan Inc.); biotin (biotinylated); purchased Accelegan Inc
T5 sequence (P01116 1-169 isoform P01116-2 G12A): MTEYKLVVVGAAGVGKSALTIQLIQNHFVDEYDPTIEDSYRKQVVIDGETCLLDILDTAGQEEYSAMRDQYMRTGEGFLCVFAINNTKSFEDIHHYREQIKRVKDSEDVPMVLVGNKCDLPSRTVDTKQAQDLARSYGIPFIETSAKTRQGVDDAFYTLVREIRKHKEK

[1] = system: KRas-mediated phosphorylation of ERK in A549 cells; experiment: Inhibition of KRas-mediated phosphorylation of ERK (Cisbio HTRF pERK), A549 cells; type: cell-based; details: Homo sapiens, A549, 3 h, single point, 100 nM compound, 3 hrs
Outline: (§1)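 Using 6,000 cells per well, compounds are applied for 3 hrs and cells then lysed at 4° C with shaking for 40 mins. Phospho-ERK is measured by HTRF after 2 hrs of lysate incubation with the d2/Cryptate antibody mixture.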

KRas^Q61H = biological target: T6, KRas^Q61H (Homo sapiens, UniProt P01116, Q61H); experiment: KRas binding assay (TR-FRET tracer displacement), KRas Q61H; details: TR-FRET tracer displacement, KRas Q61H
T6 construct: Biotinylated KRas (corresponding to amino acids 1-169, produced at Accelegan Inc.); biotin (biotinylated); purchased Accelegan Inc
T6 sequence (P01116 1-169 isoform P01116-2 Q61H): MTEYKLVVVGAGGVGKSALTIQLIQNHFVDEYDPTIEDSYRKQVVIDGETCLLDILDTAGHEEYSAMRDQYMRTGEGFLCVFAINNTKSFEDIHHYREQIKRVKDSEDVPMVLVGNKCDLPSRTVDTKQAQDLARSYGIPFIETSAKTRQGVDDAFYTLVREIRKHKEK

[2] = system: KRas-mediated phosphorylation of ERK in H358 cells; experiment: Inhibition of KRas-mediated phosphorylation of ERK (Cisbio HTRF pERK), H358 cells; type: cell-based; details: Homo sapiens, NCI-H358, 3 h, single point, 100 nM compound, 3 hrs
Outline: (§2)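 Compound treatment lasts 3 hrs on 6,000 seeded cells, testing 10 doses from a 10 uM top concentration in 3-fold decrements at 0.8% final DMSO. Trametinib at 0.2 uM defines the Min signal. Detection is HTRF on cold-lysed cell extracts.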

[3] = system: KRas-mediated phosphorylation of ERK in AsPC-1 cells; experiment: Inhibition of KRas-mediated phosphorylation of ERK (Cisbio HTRF pERK), AsPC-1 cells; type: cell-based; details: Homo sapiens; for inhibition at 0.1 µM: ASPC1, 3 h, single point, 100 nM compound, 3 hrs, AsPC-1 cells; for IC50: ASPC1, AsPC-1 cells, HTRF pERK
Outline: as §2

[4] = system: KRas-mediated phosphorylation of ERK in H727 cells; experiment: Inhibition of KRas-mediated phosphorylation of ERK (Cisbio HTRF pERK), H727 cells; type: cell-based; details: Homo sapiens; for inhibition at 0.1 µM: NCI-H727, 3 h, single point, 100 nM compound, 3 hrs, H727 cells; for IC50: NCI-H727, H727 cells, HTRF pERK
Outline: as §2

KRas^G12C = biological target: T7, KRas^G12C (Homo sapiens, UniProt P01116, G12C); experiment: KRas binding assay (TR-FRET tracer displacement), KRas G12C; details: TR-FRET tracer displacement, KRas G12C
T7 construct: Biotinylated KRas (corresponding to amino acids 1-169, produced at Accelegan Inc.); biotin (biotinylated); purchased Accelegan Inc
T7 sequence (P01116 1-169 isoform P01116-2 G12C): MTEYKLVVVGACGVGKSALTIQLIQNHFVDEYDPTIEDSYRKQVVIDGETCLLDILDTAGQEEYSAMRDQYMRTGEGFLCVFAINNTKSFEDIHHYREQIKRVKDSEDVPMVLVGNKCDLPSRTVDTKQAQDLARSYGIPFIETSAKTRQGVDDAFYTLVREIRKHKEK

KRas^G13D = biological target: T8, KRas^G13D (Homo sapiens, UniProt P01116, G13D); experiment: KRas binding assay (TR-FRET tracer displacement), KRas G13D; details: TR-FRET tracer displacement, KRas G13D
T8 construct: Biotinylated KRas (corresponding to amino acids 1-169, produced at Accelegan Inc.); biotin (biotinylated); purchased Accelegan Inc
T8 sequence (P01116 1-169 isoform P01116-2 G13D): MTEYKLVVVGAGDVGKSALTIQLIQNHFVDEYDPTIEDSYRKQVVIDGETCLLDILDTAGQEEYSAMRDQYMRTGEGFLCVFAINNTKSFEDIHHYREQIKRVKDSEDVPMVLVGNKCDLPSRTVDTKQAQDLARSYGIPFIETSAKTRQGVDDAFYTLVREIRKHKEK

KRas^G12D = biological target: T9, KRas^G12D (Homo sapiens, UniProt P01116, G12D); experiment: KRas binding assay (TR-FRET tracer displacement), KRas G12D
T9 construct: Biotinylated KRas (corresponding to amino acids 1-169, produced at Accelegan Inc.); biotin (biotinylated); purchased Accelegan Inc
T9 sequence (P01116 1-169 isoform P01116-2 G12D): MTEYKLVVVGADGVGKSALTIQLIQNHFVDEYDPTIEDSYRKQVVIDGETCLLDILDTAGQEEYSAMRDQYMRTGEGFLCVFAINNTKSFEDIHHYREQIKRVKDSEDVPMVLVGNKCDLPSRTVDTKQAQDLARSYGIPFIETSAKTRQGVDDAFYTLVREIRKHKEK

[5] = system: KRas-mediated phosphorylation of ERK in H460 cells; experiment: Inhibition of KRas-mediated phosphorylation of ERK (Cisbio HTRF pERK), H460 cells; type: cell-based; details: Homo sapiens, NCI-H460, 3 h, single point, 100 nM compound, 3 hrs
Outline: as §2

[6] = system: KRas-mediated phosphorylation of ERK in HCT116 cells; experiment: Inhibition of KRas-mediated phosphorylation of ERK (Cisbio HTRF pERK), HCT116 cells; type: cell-based; details: Homo sapiens, HCT-116, 3 h, single point, 100 nM compound, 3 hrs
Outline: as §1

T1 sequence (P01116 1-169 isoform P01116-2 G12R): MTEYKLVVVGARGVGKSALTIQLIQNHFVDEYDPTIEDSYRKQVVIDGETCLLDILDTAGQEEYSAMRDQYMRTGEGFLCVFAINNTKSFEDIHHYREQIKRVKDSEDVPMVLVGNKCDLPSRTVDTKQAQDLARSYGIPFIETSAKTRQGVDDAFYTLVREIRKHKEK

Row | Structure (SMILES) | IC50 (KRas^G12R) [nM] | IC50 (KRas^G12V) [nM] | IC50 (KRas^WT) [nM] | IC50 (KRas^G12S) [nM] | IC50 (KRas^G12A) [nM] | inhibition at 0.1 µM [1] [%] | IC50 (KRas^Q61H) [nM] | inhibition at 0.1 µM [2] [%] | inhibition at 0.1 µM [3] [%] | inhibition at 0.1 µM [4] [%] | IC50 (KRas^G12C) [nM] | IC50 (KRas^G13D) [nM] | IC50 (KRas^G12D) [nM] | inhibition at 0.1 µM [5] [%] | inhibition at 0.1 µM [6] [%] | IC50 [3] [nM] | IC50 [4] [nM]
1 | Nc1nc2c(-c3ncc4c(N5CCCC6(C5)NC(=O)NC6=O)nc(OCC56CCCN5CCC6)nc4c3F)ccc(F)c2s1 (stereo not drawn) [Example 736, 7-(7-(2-amino-7-fluorobenzo[d]thiazol-4-yl)-8-fluoro-2-((tetrahydro-1H-pyrrolizin-7a(5H)-yl)methoxy)pyrido[4,3-d]pyrimidin-4-yl)-1,3,7-triazaspiro[4.5]decane-2,4-dione] | 640 | 664 | 139 | 75 | 173 | 2 | 26 | 5 | -3 | -4 | 111 | 93 | 2330 | – | – | – | –
2 | Cc1cc2[nH]nnc2c(-c2ncc3c(N4CCC[C@@](C)(O)C4)nc(OCC45CCCN4CCC5)nc3c2F)c1C [Example 734, (3R)-1-(7-(5,6-dimethyl-1H-benzo[d][1,2,3]triazol-4-yl)-8-fluoro-2-((hexahydro-1H-pyrrolizin-7a-yl)methoxy)pyrido[4,3-d]pyrimidin-4-yl)-3-methylpiperidin-3-ol] | 20600 | 11600 | 10500 | 11600 | 10300 | – | 11400 | – | -18 | -3 | 10600 | 10500 | 8110 | -3 | -13 | – | –
3 | C[C@@]1(O)CCCN(c2nc(OCC34CCCN3CCC4)nc3c(F)c(-c4ccc(F)c5sc(N)nc45)ncc23)C1 [Example 735, (R)-1-(7-(2-amino-7-fluorobenzo[d]thiazol-4-yl)-8-fluoro-2-((hexahydro-1H-pyrrolizin-7a-yl)methoxy)pyrido[4,3-d]pyrimidin-4-yl)-3-methylpiperidin-3-ol] | 3960 | 2590 | 1840 | 2770 | 2680 | – | 3530 | – | 14 | -31 | 3130 | 2140 | 1980 | 5 | -2 | – | –
4 | Cc1cc2c(c(-c3ncc4c(N5CCC[C@@](C)(O)C5)nc(OCC56CCCN5CCC6)nc4c3F)c1C)CC(=O)N2 [Example 784, 4-(8-fluoro-2-((hexahydro-1H-pyrrolizin-7a-yl)methoxy)-4-((R)-3-hydroxy-3-methylpiperidin-1-yl)pyrido[4,3-d]pyrimidin-7-yl)-5,6-dimethylindolin-2-one] | 4490 | 1920 | 665 | 475 | 717 | – | 746 | – | 19 | 0 | 480 | 471 | 1320 | 9 | 9 | – | –
5 | O=C1NCC2(CCCN(c3nc(OC[C@@]45CCCN4C[C@H](F)C5)nc4c(F)c(-c5c6ccccc6cc6[nH]ncc56)ncc34)C2)N1 (stereo partly drawn) [Example 760, 7-(7-(1H-benzo[f]indazol-4-yl)-8-fluoro-2-(((2R,7aS)-2-fluorohexahydro-1H-pyrrolizin-7a-yl)methoxy)pyrido[4,3-d]pyrimidin-4-yl)-1,3,7-triazaspiro[4.5]decan-2-one] | 170 | 67 | 88 | 76 | 91 | – | 66 | – | – | – | 73 | 72 | 76 | – | – | > 10000 | > 10000
6 | Cc1cc2[nH]ncc2c(-c2ncc3c(N4CC5CC(O)C(C5)C4)nc(OCC45CCCN4CCC5)nc3c2F)c1C (stereo not drawn) [Example 725, 3-(7-(5,6-dimethyl-1H-indazol-4-yl)-8-fluoro-2-((tetrahydro-1H-pyrrolizin-7a(5H)-yl)methoxy)pyrido[4,3-d]pyrimidin-4-yl)-3-azabicyclo[3.2.1]octan-6-ol] | 441 | 410 | 965 | 494 | 763 | – | 1210 | – | – | – | 812 | 1120 | 1610 | – | – | > 10000 | > 10000
7 | O=C1NC(=O)C2(CCCN(c3nc(OCC45CCCN4CCC5)nc4c(F)c(-c5c6ccccc6cc6[nH]ncc56)ncc34)C2)N1 (stereo not drawn) [Example 755, 7-(7-(1H-benzo[f]indazol-4-yl)-8-fluoro-2-((hexahydro-1H-pyrrolizin-7a-yl)methoxy)pyrido[4,3-d]pyrimidin-4-yl)-1,3,7-triazaspiro[4.5]decane-2,4-dione] | 9 | 11 | 13 | 11 | 14 | – | 9 | – | – | – | 11 | 11 | 16 | – | – | > 10000 | > 10000
8 | Cc1c(Cl)cc2[nH]ncc2c1-c1ncc2c(N3CCC[C@]4(C3)NC(=O)NC4=O)nc(OCC34CCCN3CCC4)nc2c1F [Example 766, (5R)-7-(7-(6-chloro-5-methyl-1H-indazol-4-yl)-8-fluoro-2-((hexahydro-1H-pyrrolizin-7a-yl)methoxy)pyrido[4,3-d]pyrimidin-4-yl)-1,3,7-triazaspiro[4.5]decane-2,4-dione] | 1880 | 988 | 980 | 824 | 1160 | – | 954 | – | – | – | 927 | 1210 | 2200 | – | – | > 10000 | > 10000
9 | Oc1cc(Cl)c(C2CC2)c(-c2ncc3c(N4C[C@H]5C[C@@H](C4)[C@H](O)C5)nc(OCC45CCCN4CCC5)nc3c2F)c1 [Example 738, (1S,5S,6R)-3-(7-(3-chloro-2-cyclopropyl-5-hydroxyphenyl)-8-fluoro-2-((tetrahydro-1H-pyrrolizin-7a(5H)-yl)methoxy)pyrido[4,3-d]pyrimidin-4-yl)-3-azabicyclo[3.2.1]octan-6-ol] | 2 | 3 | 11 | 9 | 11 | – | 9 | – | – | – | 9 | 10 | 17 | – | – | 5960 | 1510
10 | O=C1NC(=O)[C@]2(CCCN(c3nc(OCC45CCCN4CCC5)nc4c(F)c(-c5c(C6CC6)c(Cl)cc6[nH]ncc56)ncc34)C2)N1 [Example 779, (5R)-7-(7-(6-chloro-5-cyclopropyl-1H-indazol-4-yl)-8-fluoro-2-((hexahydro-1H-pyrrolizin-7a-yl)methoxy)pyrido[4,3-d]pyrimidin-4-yl)-1,3,7-triazaspiro[4.5]decane-2,4-dione] | 2 | < 2 | < 2 | < 2 | < 2 | – | < 2 | – | – | – | < 2 | < 2 | 2 | – | – | > 10000 | 9390
11 | O=C1NC(=O)C2(CCCN(c3nc(OCC45CCCN4CCC5)nc4c(F)c(-c5cc(O)cc(Cl)c5C5CC5)ncc34)C2)N1 (stereo not drawn) [Example 739, 7-(7-(3-chloro-2-cyclopropyl-5-hydroxyphenyl)-8-fluoro-2-((hexahydro-1H-pyrrolizin-7a-yl)methoxy)pyrido[4,3-d]pyrimidin-4-yl)-1,3,7-triazaspiro[4.5]decane-2,4-dione] | < 2 | < 2 | < 2 | < 2 | 2 | – | < 2 | – | – | – | < 2 | < 2 | 3 | – | – | > 10000 | > 10000

Source: patent publication US20260015350A1, “AZAQUINAZOLINE PAN-KRAS INHIBITORS” (Mirati Therapeutics, Inc., priority 2022, published 2026)
